Source: US9611248B2, “Chemical compounds” (Syngenta Participations AG, priority 2013, dated 2017)

Tested on: a variety of test species
Test: Post-emergence herbicidal activity
Assay type: in vivo
Set-up: key to ABUTH (Abutilon theophrasti) damage score / AMARE (Amaranthus retroflexus) damage score / ALOMY (Alopecurus myosuroides) damage score / ECHCG (Echinochloa crus-galli) damage score / ZEAMX (Zea mays) damage score / SOLNI (Solanum nigrum) damage score: 0 = no damage to plant, 5 = total damage to plant
Conditions: evaluated after 13 days
Procedure, shortened: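 Plants grown for 8 days in pots were sprayed post-emergence with compound in acetone/water (50:50) containing 0.5% Tween 20. They were kept in a glasshouse at 24/16 °C day/night, 14 h light, 65% humidity, watered twice daily. Damage was scored after 13 days (0 none to 5 total).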

COC1=C(C)C(=O)N(c2cc(C)c(Cl)nn2)C1O (stereo not drawn) [BD11]
ABUTH (Abutilon theophrasti) damage score (rate 1000 g/ha): 4
ALOMY (Alopecurus myosuroides) damage score (rate 1000 g/ha): 2
AMARE (Amaranthus retroflexus) damage score (rate 1000 g/ha): 2
ECHCG (Echinochloa crus-galli) damage score (rate 1000 g/ha): 1
SETFA (Setaria faberi) damage score (rate 1000 g/ha): 2
ZEAMX (Zea mays) damage score (rate 1000 g/ha): 0

COC1=C(C)C(=O)N(c2cc(C(F)(F)F)c(SCc3ccccc3)cn2)C1O (stereo not drawn) [AD93]
ABUTH (Abutilon theophrasti) damage score (rate 1000 g/ha): 3
ALOMY (Alopecurus myosuroides) damage score (rate 1000 g/ha): 2
AMARE (Amaranthus retroflexus) damage score (rate 1000 g/ha): 4
ECHCG (Echinochloa crus-galli) damage score (rate 1000 g/ha): 3
SETFA (Setaria faberi) damage score (rate 1000 g/ha): 4
ZEAMX (Zea mays) damage score (rate 1000 g/ha): 0

COC1=C(C)C(=O)N(c2cc(C(F)(F)F)c(OCc3ccco3)cn2)C1O (stereo not drawn) [AD86]
ABUTH (Abutilon theophrasti) damage score (rate 250 g/ha): 4
ALOMY (Alopecurus myosuroides) damage score (rate 250 g/ha): 2
AMARE (Amaranthus retroflexus) damage score (rate 250 g/ha): 5
ECHCG (Echinochloa crus-galli) damage score (rate 250 g/ha): 1
SETFA (Setaria faberi) damage score (rate 250 g/ha): 3
ZEAMX (Zea mays) damage score (rate 250 g/ha): 0

COC1=C(C)C(=O)N(c2cc(OC(F)(F)F)ccn2)C1O (stereo not drawn) [AD39]
ABUTH (Abutilon theophrasti) damage score (rate 1000 g/ha): 4
ALOMY (Alopecurus myosuroides) damage score (rate 1000 g/ha): 4
AMARE (Amaranthus retroflexus) damage score (rate 1000 g/ha): 2
ECHCG (Echinochloa crus-galli) damage score (rate 1000 g/ha): 4
SETFA (Setaria faberi) damage score (rate 1000 g/ha): 4
ZEAMX (Zea mays) damage score (rate 1000 g/ha): 0

COC1=C(C)C(=O)N(c2cc(C)c(-c3ccc(OC)cc3)cn2)C1O (stereo not drawn) [AD115]
ABUTH (Abutilon theophrasti) damage score (rate 1000 g/ha): 5
ALOMY (Alopecurus myosuroides) damage score (rate 1000 g/ha): 2
AMARE (Amaranthus retroflexus) damage score (rate 1000 g/ha): 5
ECHCG (Echinochloa crus-galli) damage score (rate 1000 g/ha): 1
SETFA (Setaria faberi) damage score (rate 1000 g/ha): 1
ZEAMX (Zea mays) damage score (rate 1000 g/ha): 1

CCOc1cnc(N2C(=O)C(C)=C(OC)C2O)cc1C(F)(F)F (stereo not drawn) [AD55]
ABUTH (Abutilon theophrasti) damage score (rate 1000 g/ha): 5
ALOMY (Alopecurus myosuroides) damage score (rate 1000 g/ha): 5
AMARE (Amaranthus retroflexus) damage score (rate 1000 g/ha): 5
ECHCG (Echinochloa crus-galli) damage score (rate 1000 g/ha): 5
SETFA (Setaria faberi) damage score (rate 1000 g/ha): 5
ZEAMX (Zea mays) damage score (rate 1000 g/ha): 3

COC1=C(C)C(=O)N(c2cc(C(C)(C)C)c(Cl)nn2)C1O (stereo not drawn) [BD2]
ABUTH (Abutilon theophrasti) damage score (rate 1000 g/ha): 5
ALOMY (Alopecurus myosuroides) damage score (rate 1000 g/ha): 4
AMARE (Amaranthus retroflexus) damage score (rate 1000 g/ha): 5
ECHCG (Echinochloa crus-galli) damage score (rate 1000 g/ha): 5
SETFA (Setaria faberi) damage score (rate 1000 g/ha): 5
ZEAMX (Zea mays) damage score (rate 1000 g/ha): 2

COC1=C(C)C(=O)N(c2cc(C(F)(F)F)c(OCC(C)C)cn2)C1O (stereo not drawn) [AD56]
ABUTH (Abutilon theophrasti) damage score (rate 1000 g/ha): 5
ALOMY (Alopecurus myosuroides) damage score (rate 1000 g/ha): 5
AMARE (Amaranthus retroflexus) damage score (rate 1000 g/ha): 5
ECHCG (Echinochloa crus-galli) damage score (rate 1000 g/ha): 5
SETFA (Setaria faberi) damage score (rate 1000 g/ha): 5
ZEAMX (Zea mays) damage score (rate 1000 g/ha): 0

COC1=C(Br)C(O)N(c2cc(C(C)(C)C)ccn2)C1=O (stereo not drawn) [AE2]
ABUTH (Abutilon theophrasti) damage score (rate 1000 g/ha): 4
ALOMY (Alopecurus myosuroides) damage score (rate 1000 g/ha): 1
AMARE (Amaranthus retroflexus) damage score (rate 1000 g/ha): 2
ECHCG (Echinochloa crus-galli) damage score (rate 1000 g/ha): 2
SETFA (Setaria faberi) damage score (rate 1000 g/ha): 4
ZEAMX (Zea mays) damage score (rate 1000 g/ha): 1

COC1=C(C)C(=O)N(c2cc(N3CCCCC3)ncn2)C1O (stereo not drawn) [CD1, 2-hydroxy-3-methoxy-4-methyl-1-[6-(1-piperidyl)pyrimidin-4-yl]-2H-pyrrol-5-one]
ABUTH (Abutilon theophrasti) damage score (rate 1000 g/ha): 0
ALOMY (Alopecurus myosuroides) damage score (rate 1000 g/ha): 0
AMARE (Amaranthus retroflexus) damage score (rate 1000 g/ha): 0
ECHCG (Echinochloa crus-galli) damage score (rate 1000 g/ha): 0
SETFA (Setaria faberi) damage score (rate 1000 g/ha): 0
ZEAMX (Zea mays) damage score (rate 1000 g/ha): 0

COC1=C(C)C(=O)N(c2cc(C(F)(F)F)c(Cl)cn2)C1O (stereo not drawn) [AD30]
ABUTH (Abutilon theophrasti) damage score (rate 1000 g/ha): 5
ALOMY (Alopecurus myosuroides) damage score (rate 1000 g/ha): 5
AMARE (Amaranthus retroflexus) damage score (rate 1000 g/ha): 5
ECHCG (Echinochloa crus-galli) damage score (rate 1000 g/ha): 5
SETFA (Setaria faberi) damage score (rate 1000 g/ha): 4
ZEAMX (Zea mays) damage score (rate 1000 g/ha): 1

COC1=C(C)C(=O)N(c2cc(C(F)(F)F)c(OCCCc3ccccc3)cn2)C1O (stereo not drawn) [AD84]
ABUTH (Abutilon theophrasti) damage score (rate 1000 g/ha): 2
ALOMY (Alopecurus myosuroides) damage score (rate 1000 g/ha): 1
AMARE (Amaranthus retroflexus) damage score (rate 1000 g/ha): 5
ECHCG (Echinochloa crus-galli) damage score (rate 1000 g/ha): 2
SETFA (Setaria faberi) damage score (rate 1000 g/ha): 4
ZEAMX (Zea mays) damage score (rate 1000 g/ha): 1
